# From patent publication US11467168B2, “Methods of identifying a moldulator of otopetrin-mediated proton translocation activity” (UNIVERSITY OF SOUTHERN CALIFORNIA, priority 2017, dated 2022)
# Several values for one entry are separate records, joined by “and”; a condition that tells them apart may be missing. Equal values may be shown once.
# Molecular target: T1, Otop1 (Mus musculus, UniProt Q80VM9, G396A)
# T1 construct: expressed in transfected cells; host or cells: HEK-293 cells (CRL-1573, ATCC), transient co-transfection with GFP, cDNA in pcDNA3
# T1 sequence (Q80VM9 1-600 G396A): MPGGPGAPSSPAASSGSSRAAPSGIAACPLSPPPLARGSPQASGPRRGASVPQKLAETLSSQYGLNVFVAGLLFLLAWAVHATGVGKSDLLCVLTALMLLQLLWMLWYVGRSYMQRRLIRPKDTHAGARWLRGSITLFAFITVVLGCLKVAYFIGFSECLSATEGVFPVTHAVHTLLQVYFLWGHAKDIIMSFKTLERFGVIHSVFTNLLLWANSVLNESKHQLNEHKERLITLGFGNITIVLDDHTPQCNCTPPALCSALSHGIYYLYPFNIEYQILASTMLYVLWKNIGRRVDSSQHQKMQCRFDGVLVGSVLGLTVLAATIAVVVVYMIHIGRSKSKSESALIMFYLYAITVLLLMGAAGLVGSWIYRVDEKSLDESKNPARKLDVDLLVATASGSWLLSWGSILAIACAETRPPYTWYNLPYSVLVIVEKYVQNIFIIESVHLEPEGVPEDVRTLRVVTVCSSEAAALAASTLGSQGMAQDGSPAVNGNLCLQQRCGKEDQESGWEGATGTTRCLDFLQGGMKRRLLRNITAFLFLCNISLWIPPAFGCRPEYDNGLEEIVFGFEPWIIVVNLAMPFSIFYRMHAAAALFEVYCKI
# Assay: Zn2+ inhibition of Otop1 currents, whole-cell patch clamp in transfected HEK-293 cells
# Type: cell-based
# Details: Otop1-transfected HEK-293 cells, currents evoked by pH 5.5, Hill equation fit
# From the text: The transition metal Zn^2+ is a potent inhibitor of Hv1, binding to two external histidine residues that regulate gating^7,31,32. […] To gain insights into structural elements involved in ion permeation by Otop1, we measured its sensitivity to inhibition by Zn^2+.
# Otop and GFP (5:1) were co-transfected into HEK-293 cells (CRL-1573, ATCC) using TransIT-LT1 Transfection Reagent (Mirus Bio Corporation, Madison, Wis.). Patch clamp recording and imaging experiments on GFP-positive cells were performed at room temperature ˜24-48 h after transfection.
# Whole-cell patch clamp recording was performed as previously described^49. In brief, recordings were made with an Axopatch 200A or Axopatch 200B amplifier, digitized with a Digidata 1322a 16-bit data acquisition system, acquired with pClamp 8.2, and analyzed with Clampfit 8.2 (Molecular Devices, Palo Alto, Calif.). Records were sampled at 5 kHz and filtered at 1 kHz. Patch pipettes with resistance of 2-4 MΩ were fabricated from borosilicate glass, and only recordings in which a gigaohm seal was achieved were used in the analysis. For most experiments, after the whole cell configuration was achieved, the membrane potential was held at −80 mV, or ramped from −80 mV to +80 mV (1V/s) once per second. […]
compound,measurement,value
"[Cl-].[Cl-].[Zn+2] [Zn^2+, ZnCl2]",Hill coefficient,0.89 and 0.89±0.06
same,IC50,190 µM
